In PMC11696576, “Next generation thiazolyl ketone inhibitors of cytosolic phospholipase A2 α for targeted cancer therapy” (Nature Communications, 2025):
Values joined by “and” are separate entries in the source; they are usually repeats but may differ in a detail not shown here. Equal values may be shown once.

Columns and labels:
whole blood = test: eicosanoid release from LPS-stimulated whole blood; format: cell-based, human; set-up: LTB4 / 5-HETE / 11,12-EET / 12-HETE: unit not given here; conditions: for 15-HETE level, whole blood / PGE2 level, whole blood / TxB2 level, whole blood: individual replicate
Description: In whole blood, bacterial lipopolysaccharide (LPS) stimulated the release of PGE2, thromboxane B2 (TXB2), and 15-hydroxyeicosatetraenoic acid (HETE). […] The levels of leukotriene B4 (LTB4), 12-HETE, 5-HETE and 11,12-epoxyeicosatrienoic acid (EET) were not affected by LPS stimulation but increased when exogenous AA was included, irrespective of the presence of GK420 (Fig. S1a).
Fig. 3 Ex vivo suppression of eicosanoid production by GK420. a Eicosanoid levels (pmol/mL) in the plasma of whole blood pretreated with vehicle (DMSO), 3, 10 or 30 µM GK420,) 10 µM arachidonyl trifluoromethyl ketone (ATK), or 1 μM indomethacin (Indo) before stimulation with 1 µg/mL LPS for 24 h. […] All box and whisker plots show the mean (center line), stdev (box), and min and max values (whiskers) from 4 biological replicates. P-values were determined using RM-one way ANOVA with Dunnett’s correction for multiple comparisons.
Aliquots of 0.4 mL of heparinized whole blood were mixed with 1.6 mL of serum-free RPMI cultivation medium with- or without indomethacin (# I7378, Sigma-Aldrich), GK420, or arachidonyl trifluoromethyl ketone (ATK) (Cayman #62120), prior to the addition of lipopolysaccharides (LPS) (1 μg/mL) to activate the cPLA2α enzyme (LPS was from E. coli 026:B6 γ-irradiated, #L2654, Sigma-Aldrich). Exogenous arachidonic acid (5–10 µM) (#3555, Sigma-Aldrich) was added after 23.5 h, for the final 30 mins of the 24 h stimulation. Following treatment (24 h, 37 °C, 5% CO2), the diluted blood was centrifuged (5992 × g for 10 min at 4 °C) to isolate the plasma from the cell fraction. Plasma samples were stored at −80 °C until analysis. Samples were analyzed at the Lipid Maps Consortium, UCSD according to the standard methods. 200 µL of sample was subjected to solid phase extraction of the eicosanoids using the StrataX solid phase extraction columns from Phenomenex and analyzed by UHPLC-MS/MS using full standards mix.

recombinant human cPLA2α = target: T1, recombinant human cPLA2α (Homo sapiens, UniProt P47712); set-up: method as in PMID 25152071; conditions: previously published data ref 19, cited from earlier work
T1 sequence (P47712 1-749): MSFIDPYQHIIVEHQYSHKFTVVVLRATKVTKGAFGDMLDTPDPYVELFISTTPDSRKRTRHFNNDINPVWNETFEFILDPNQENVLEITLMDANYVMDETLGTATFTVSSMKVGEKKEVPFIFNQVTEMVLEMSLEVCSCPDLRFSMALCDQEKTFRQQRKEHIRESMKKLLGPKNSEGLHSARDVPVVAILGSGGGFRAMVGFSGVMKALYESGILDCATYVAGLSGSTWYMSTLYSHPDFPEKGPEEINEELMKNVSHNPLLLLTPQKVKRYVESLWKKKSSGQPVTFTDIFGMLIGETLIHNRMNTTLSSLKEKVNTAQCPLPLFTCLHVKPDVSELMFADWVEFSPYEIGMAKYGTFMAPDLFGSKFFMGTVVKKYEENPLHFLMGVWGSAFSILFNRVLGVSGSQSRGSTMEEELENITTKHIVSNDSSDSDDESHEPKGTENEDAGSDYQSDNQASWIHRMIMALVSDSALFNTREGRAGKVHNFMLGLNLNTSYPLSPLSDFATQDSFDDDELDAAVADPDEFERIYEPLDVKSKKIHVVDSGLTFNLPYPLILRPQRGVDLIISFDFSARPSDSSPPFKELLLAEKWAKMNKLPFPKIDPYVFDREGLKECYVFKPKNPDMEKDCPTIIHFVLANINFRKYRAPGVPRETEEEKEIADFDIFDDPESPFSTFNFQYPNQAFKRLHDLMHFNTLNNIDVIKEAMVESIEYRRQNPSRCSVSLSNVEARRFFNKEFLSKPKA

[1] = target: T2, human calcium-independent GVIA iPLA2 (Homo sapiens, UniProt O60733); set-up: method as in PMID 25152071; conditions: 0.091 mole fraction; previously published data ref 19; cited from earlier work
T2 sequence (O60733 1-806): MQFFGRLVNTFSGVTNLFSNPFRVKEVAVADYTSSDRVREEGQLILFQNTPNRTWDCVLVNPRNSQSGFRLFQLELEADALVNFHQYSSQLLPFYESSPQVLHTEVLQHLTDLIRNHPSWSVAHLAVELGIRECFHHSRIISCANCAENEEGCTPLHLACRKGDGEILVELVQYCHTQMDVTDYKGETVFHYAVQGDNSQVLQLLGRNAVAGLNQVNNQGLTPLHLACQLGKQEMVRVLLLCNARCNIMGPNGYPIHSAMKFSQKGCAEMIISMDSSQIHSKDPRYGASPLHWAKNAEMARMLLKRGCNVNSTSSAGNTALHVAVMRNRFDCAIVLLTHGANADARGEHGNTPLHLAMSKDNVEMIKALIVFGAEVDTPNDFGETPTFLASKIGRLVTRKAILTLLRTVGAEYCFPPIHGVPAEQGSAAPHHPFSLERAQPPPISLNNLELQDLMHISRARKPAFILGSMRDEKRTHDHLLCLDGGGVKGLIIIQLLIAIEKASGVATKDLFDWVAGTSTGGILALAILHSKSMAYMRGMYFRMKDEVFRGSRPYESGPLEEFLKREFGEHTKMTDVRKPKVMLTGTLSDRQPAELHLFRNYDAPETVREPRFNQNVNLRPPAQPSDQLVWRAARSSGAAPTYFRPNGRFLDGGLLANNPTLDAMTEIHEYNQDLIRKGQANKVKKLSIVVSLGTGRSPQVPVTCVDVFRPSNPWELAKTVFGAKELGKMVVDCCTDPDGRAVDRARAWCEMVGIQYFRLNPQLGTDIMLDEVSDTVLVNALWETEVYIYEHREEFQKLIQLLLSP

[2] = 10 uM + LPS + AA, listed as AVX420

CCCCCCCOc1ccc(OCC(=O)c2nc(C(=O)OC)cs2)cc1 [GK420]
15-HETE level, whole blood (whole blood; 3 uM + LPS): 0.23 pmol/mL and 1.1 pmol/mL and 0.41 pmol/mL and 0.42 pmol/mL | PGE2 level, whole blood (whole blood; 3 uM + LPS): 0.2 pmol/mL and 2.5 pmol/mL and 0.7 pmol/mL and 0.9 pmol/mL | TxB2 level, whole blood (whole blood; 3 uM + LPS): 1 pmol/mL and 10.1 pmol/mL and 3.2 pmol/mL and 4.5 pmol/mL | 15-HETE level, whole blood (whole blood; 10 uM + LPS + AA): 68.15 pmol/mL and 72.88 pmol/mL and 78.71 pmol/mL and 78.11 pmol/mL | PGE2 level, whole blood (whole blood; 10 uM + LPS + AA): 11.8 pmol/mL and 18.9 pmol/mL and 15.6 pmol/mL and 18.2 pmol/mL | TxB2 level, whole blood (whole blood; 10 uM + LPS + AA): 14.6 pmol/mL and 27.5 pmol/mL and 24.1 pmol/mL and 18.1 pmol/mL | 5-HETE (whole blood; [2]): 59.11 and 60.82 and 63.51 and 71.56 | 11,12-EET (whole blood; [2]): 12.46 and 11.85 and 10.02 and 12.34 | 12-HETE (whole blood; [2]): 73 and 139.7 and 83.5 and 77.9 | LTB4 (whole blood; [2]): 0.6 and 0.8 | 15-HETE level, whole blood (whole blood; 10 uM + LPS): 0.65 pmol/mL and 0.26 pmol/mL and 0.51 pmol/mL and 0.31 pmol/mL | PGE2 level, whole blood (whole blood; 10 uM + LPS): 1.7 pmol/mL and 0.3 pmol/mL and 0.7 pmol/mL and 0.1 pmol/mL | TxB2 level, whole blood (whole blood; 10 uM + LPS): 8.4 pmol/mL and 1.9 pmol/mL and 2.9 pmol/mL and 0.8 pmol/mL | 15-HETE level, whole blood (whole blood; 30 uM + LPS): 0.31 pmol/ml (2×) and 0.35 pmol/ml and 0.42 pmol/ml | PGE2 level, whole blood (whole blood; 30 uM + LPS): 0.05 pmol/ml and 0.4 pmol/ml and 0.1 pmol/ml (2×) | TxB2 level, whole blood (whole blood; 30 uM + LPS): 0.2 pmol/mL and 3.4 pmol/mL and 1.2 pmol/mL and 1.5 pmol/mL | production of PGE2, TXB2 and 15-HETE (whole blood; whole blood, LPS): suppressed their production | production of PGE2, TXB2 and 15-HETE with excess free AA (whole blood; whole blood, LPS + exogenous free AA): no effect

CCCCCCCCc1ccc(OCC(=O)c2nc(C(=O)OC)cs2)cc1 [GK470]
cPLA2α % Inhib (recombinant human cPLA2α; 0.091 mole fraction): >90% | cPLA2α XI(50) (recombinant human cPLA2α; XI(50) ± stdev): 0.011 ± 0.005 mole fraction | GVIA iPLA2 % Inhib [1]: 86%
